Laboratory results taken from ChEMBL document CHEMBL1201862, “PubChem BioAssay data set” (2004).
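Protocol summary: plate cells (96-well), add compound at 5 concentrations, incubate 48 h, interpolate endpoints linearly. GI50: concentration for 50% inhibition of growth.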 Active and inactive are the calls of the source. No stated cut-off is given here; in the data, active = GI50 up to about 1.1 µM and inactive = higher.

Columns and labels:
Experiment in all cases: inhibition of tumour cell growth, NCI panel, 48 h
SK-MEL-2 = tested on: SK-MEL-2
U-251 = tested on: U-251
SF-295 = tested on: SF-295
LOX IMVI = tested on: LOX IMVI
UACC-257 = tested on: UACC-257
DU-145 = tested on: DU-145
BT-549 = tested on: BT-549
NCI/ADR-RES = tested on: NCI/ADR-RES
HCC 2998 = tested on: HCC 2998
HCT-116 = tested on: HCT-116
SNB-75 = tested on: SNB-75
ACHN = tested on: ACHN
SK-MEL-28 = tested on: SK-MEL-28
SW-620 = tested on: SW-620
COLO 205 = tested on: COLO 205
SN12C = tested on: SN12C
SK-MEL-5 = tested on: SK-MEL-5
MCF7 = tested on: MCF7
MDA-MB-231 = tested on: MDA-MB-231
RXF 393 = tested on: RXF 393
NCI-H460 = tested on: NCI-H460
IGROV-1 = tested on: IGROV-1
SR = tested on: SR
NCI-H522 = tested on: NCI-H522
SNB-19 = tested on: SNB-19
PC-3 = tested on: PC-3
HCT-15 = tested on: HCT-15
SK-OV-3 = tested on: SK-OV-3
NCI-H23 = tested on: NCI-H23
A498 = tested on: A498
EKVX = tested on: EKVX
CCRF-CEM = tested on: CCRF-CEM
K562 = tested on: K562
KM12 = tested on: KM12
HT-29 = tested on: HT-29
OVCAR-5 = tested on: OVCAR-5
Malme-3M = tested on: Malme-3M
SF-539 = tested on: SF-539
MOLT-4 = tested on: MOLT-4
TK-10 = tested on: TK-10
CAKI-1 = tested on: CAKI-1
UO-31 = tested on: UO-31
RPMI-8226 = tested on: RPMI-8226
NCI-H226 = tested on: NCI-H226
OVCAR-3 = tested on: OVCAR-3
MDA-N = tested on: MDA-N
A549 = tested on: A549
HOP-62 = tested on: HOP-62
SF-268 = tested on: SF-268
UACC-62 = tested on: UACC-62
786-0 = tested on: 786-0
OVCAR-8 = tested on: OVCAR-8
M14 = tested on: M14
OVCAR-4 = tested on: OVCAR-4
MDA-MB-435 = tested on: MDA-MB-435
HOP-92 = tested on: HOP-92
Hs-578T = tested on: Hs-578T

Compound: COc1ccc(O[C@H](COCc2ccccc2)C[C@@H]2COC(C)(C)O2)cc1
- GI50 (SK-MEL-2): > 100 µM (inactive)
- GI50 (U-251): > 100 µM (inactive)
- GI50 (SF-295): > 100 µM (inactive)
- GI50 (LOX IMVI): > 100 µM (inactive)
- GI50 (UACC-257): > 100 µM (inactive)
- GI50 (DU-145): > 100 µM (inactive)
- GI50 (BT-549): > 100 µM (inactive)
- GI50 (NCI/ADR-RES): > 100 µM (inactive)
- GI50 (HCC 2998): > 100 µM (inactive)
- GI50 (HCT-116): > 100 µM (inactive)
- GI50 (SNB-75): > 100 µM (inactive)
- GI50 (ACHN): > 100 µM (inactive)
- GI50 (SK-MEL-28): > 100 µM (inactive)
- GI50 (SW-620): > 100 µM (inactive)
- GI50 (COLO 205): > 100 µM (inactive)
- GI50 (SN12C): > 100 µM (inactive)
- GI50 (SK-MEL-5): > 100 µM (inactive)
- GI50 (MCF7): > 100 µM (inactive)
- GI50 (MDA-MB-231): > 100 µM (inactive)
- GI50 (RXF 393): > 100 µM (inactive)
- GI50 (NCI-H460): > 100 µM (inactive)
- GI50 (IGROV-1): > 100 µM (inactive)
- GI50 (SR): > 100 µM (inactive)
- GI50 (NCI-H522): > 100 µM (inactive)
- GI50 (SNB-19): > 100 µM (inactive)
- GI50 (PC-3): > 100 µM (inactive)
- GI50 (HCT-15): > 100 µM
- GI50 (SK-OV-3): > 100 µM (inactive)
- GI50 (NCI-H23): > 100 µM (inactive)
- GI50 (A498): > 100 µM (inactive)
- GI50 (EKVX): > 100 µM (inactive)
- GI50 (CCRF-CEM): > 100 µM (inactive)
- GI50 (K562): > 100 µM (inactive)
- GI50 (KM12): > 100 µM (inactive)
- GI50 (HT-29): > 100 µM (inactive)
- GI50 (OVCAR-5): > 100 µM (inactive)
- GI50 (Malme-3M): > 100 µM (inactive)
- GI50 (SF-539): > 100 µM (inactive)
- GI50 (MOLT-4): > 100 µM (inactive)
- GI50 (TK-10): > 100 µM (inactive)
- GI50 (CAKI-1): > 100 µM (inactive)
- GI50 (UO-31): > 100 µM (inactive)
- GI50 (RPMI-8226): > 100 µM (inactive)
- GI50 (NCI-H226): > 100 µM (inactive)
- GI50 (OVCAR-3): > 100 µM (inactive)
- GI50 (MDA-N): > 100 µM (inactive)
- GI50 (A549): > 100 µM (inactive)
- GI50 (HOP-62): > 100 µM (inactive)
- GI50 (SF-268): > 100 µM (inactive)
- GI50 (UACC-62): > 100 µM (inactive)
- GI50 (786-0): > 100 µM (inactive)
- GI50 (OVCAR-8): > 100 µM (inactive)
- GI50 (M14): > 100 µM (inactive)
- GI50 (OVCAR-4): > 100 µM (inactive)
- GI50 (MDA-MB-435): > 100 µM (inactive)

Compound: CC(C)(C)n1c(=O)n2n(c1=O)Cc1cccc3cccc(c13)C2
- GI50 (SK-MEL-2): 17.9 µM (inactive)
- GI50 (U-251): 15.3 µM (inactive)
- GI50 (HOP-92): 28.1 µM (inactive)
- GI50 (SF-295): 17 µM (inactive)
- GI50 (LOX IMVI): 23.8 µM (inactive)
- GI50 (UACC-257): 22.6 µM (inactive)
- GI50 (DU-145): 35.5 µM (inactive)
- GI50 (BT-549): 31.8 µM (inactive)
- GI50 (NCI/ADR-RES): 14.4 µM (inactive)
- GI50 (HCC 2998): 21.9 µM (inactive)
- GI50 (HCT-116): 15.1 µM (inactive)
- GI50 (Hs-578T): 12.2 µM (inactive)
- GI50 (SNB-75): 0.834 µM (active)
- GI50 (ACHN): 20.6 µM (inactive)
- GI50 (SK-MEL-28): 21.7 µM (inactive)
- GI50 (SW-620): 17 µM (inactive)
- GI50 (COLO 205): 29.5 µM (inactive)
- GI50 (SN12C): 19.3 µM (inactive)
- GI50 (SK-MEL-5): 19.5 µM (inactive)
- GI50 (MCF7): 22.8 µM (inactive)
- GI50 (MDA-MB-231): 32.6 µM (inactive)
- GI50 (RXF 393): 13.9 µM (inactive)
- GI50 (NCI-H460): 10.7 µM (inactive)
- GI50 (IGROV-1): 11.3 µM (inactive)
- GI50 (SR): 6.7 µM (inactive)
- GI50 (NCI-H522): 2.99 µM (inactive)
- GI50 (SNB-19): 25.6 µM (inactive)
- GI50 (PC-3): 13 µM (inactive)
- GI50 (HCT-15): 18.5 µM
- GI50 (SK-OV-3): 27.1 µM (inactive)
- GI50 (NCI-H23): 25.6 µM (inactive)
- GI50 (EKVX): 15 µM (inactive)
- GI50 (CCRF-CEM): 4.31 µM (inactive)
- GI50 (K562): 10.3 µM (inactive)
- GI50 (KM12): 14.7 µM (inactive)
- GI50 (HT-29): 16.7 µM (inactive)
- GI50 (OVCAR-5): 17 µM (inactive)
- GI50 (Malme-3M): 14.2 µM (inactive)
- GI50 (SF-539): 17.2 µM (inactive)
- GI50 (MOLT-4): 14.8 µM (inactive)
- GI50 (TK-10): 29.1 µM (inactive)
- GI50 (CAKI-1): 15.1 µM (inactive)
- GI50 (UO-31): 22.1 µM (inactive)
- GI50 (RPMI-8226): 14 µM (inactive)
- GI50 (OVCAR-3): 15.4 µM (inactive)
- GI50 (MDA-N): 22.1 µM (inactive)
- GI50 (A549): 26.7 µM (inactive)
- GI50 (HOP-62): 14 µM (inactive)
- GI50 (SF-268): 14.5 µM (inactive)
- GI50 (UACC-62): 24 µM (inactive)
- GI50 (786-0): 19.5 µM (inactive)
- GI50 (OVCAR-8): 17.8 µM (inactive)
- GI50 (M14): 18.4 µM (inactive)
- GI50 (OVCAR-4): 19.6 µM (inactive)
- GI50 (MDA-MB-435): 23.7 µM (inactive)

Compound: O=C(O)CC(NC(=O)C(F)(F)F)C(=O)NC1Cc2ccccc2OC1=O (centres undefined)
- GI50 (SK-MEL-2): > 100 µM (inactive)
- GI50 (U-251): > 100 µM (inactive)
- GI50 (SF-295): > 100 µM (inactive)
- GI50 (UACC-257): > 100 µM (inactive)
- GI50 (DU-145): > 100 µM (inactive)
- GI50 (BT-549): > 100 µM (inactive)
- GI50 (NCI/ADR-RES): > 100 µM (inactive)
- GI50 (HCC 2998): > 100 µM (inactive)
- GI50 (Hs-578T): > 100 µM (inactive)
- GI50 (SNB-75): > 100 µM (inactive)
- GI50 (ACHN): > 100 µM (inactive)
- GI50 (SK-MEL-28): > 100 µM (inactive)
- GI50 (SW-620): > 100 µM (inactive)
- GI50 (SN12C): > 100 µM (inactive)
- GI50 (SK-MEL-5): > 100 µM (inactive)
- GI50 (MCF7): > 100 µM (inactive)
- GI50 (RXF 393): > 100 µM (inactive)
- GI50 (NCI-H460): > 100 µM (inactive)
- GI50 (IGROV-1): > 100 µM (inactive)
- GI50 (SR): > 100 µM (inactive)
- GI50 (NCI-H522): > 100 µM (inactive)
- GI50 (SNB-19): > 100 µM (inactive)
- GI50 (PC-3): > 100 µM (inactive)
- GI50 (HCT-15): > 100 µM
- GI50 (SK-OV-3): > 100 µM (inactive)
- GI50 (NCI-H23): > 100 µM (inactive)
- GI50 (EKVX): > 100 µM (inactive)
- GI50 (K562): > 100 µM (inactive)
- GI50 (KM12): > 100 µM (inactive)
- GI50 (HT-29): > 100 µM (inactive)
- GI50 (OVCAR-5): > 100 µM (inactive)
- GI50 (Malme-3M): > 100 µM (inactive)
- GI50 (SF-539): > 100 µM (inactive)
- GI50 (MOLT-4): > 100 µM (inactive)
- GI50 (TK-10): > 100 µM (inactive)
- GI50 (CAKI-1): > 100 µM (inactive)
- GI50 (UO-31): > 100 µM (inactive)
- GI50 (RPMI-8226): > 100 µM (inactive)
- GI50 (NCI-H226): > 100 µM (inactive)
- GI50 (OVCAR-3): > 100 µM (inactive)
- GI50 (MDA-N): > 100 µM (inactive)
- GI50 (A549): > 100 µM (inactive)
- GI50 (HOP-62): > 100 µM (inactive)
- GI50 (SF-268): > 100 µM (inactive)
- GI50 (UACC-62): > 100 µM (inactive)
- GI50 (786-0): > 100 µM (inactive)
- GI50 (OVCAR-8): > 100 µM (inactive)
- GI50 (M14): > 100 µM (inactive)
- GI50 (MDA-MB-435): > 100 µM (inactive)
